Data as given in BindingDB's records for doi:10.1021/jm9800447 (The George Washington University Medical Center, 1998).

Target: Sigma non-opioid intracellular receptor 1 (Cavia porcellus) (UniProt Q60492)
Assay: Inhibition of [3H](+)-pentazocine binding to sigma-1 receptor in guinea pig brain membranes

Sequence of Sigma non-opioid intracellular receptor 1 (Cavia porcellus) (Q60492 whole entry, looked up): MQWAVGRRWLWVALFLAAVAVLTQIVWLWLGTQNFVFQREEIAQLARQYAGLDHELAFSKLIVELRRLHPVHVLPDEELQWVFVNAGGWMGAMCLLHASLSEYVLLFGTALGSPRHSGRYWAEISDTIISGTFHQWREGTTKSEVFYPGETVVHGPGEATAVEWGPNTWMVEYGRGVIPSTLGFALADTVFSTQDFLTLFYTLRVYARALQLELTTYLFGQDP

## O=S(=O)(NCCN1CCCCCC1)c1ccc(I)cc1 [N-(2-Azepan-1-yl-ethyl)-4-iodo-benzenesulfonamide]
  Ki: 1.32 nM

## O=S(=O)(NCCN1CCCCCC1)c1ccc(Br)cc1 [N-(2-Azepan-1-yl-ethyl)-4-bromo-benzenesulfonamide]
  Ki: 0.63 nM

## O=S(=O)(NCCN1CCCC1)c1ccc(I)cc1 [4-Iodo-N-(2-pyrrolidin-1-yl-ethyl)-benzenesulfonamide]
  Ki: 4.3 nM

## CCN(CC)CCNS(=O)(=O)c1ccc(I)cc1 [N-(2-Diethylamino-ethyl)-4-iodo-benzenesulfonamide]
  Ki: 4.97 nM

## COc1ccc(S(=O)(=O)N(C)CCN2CCCCCC2)cc1I [N-(2-Azepan-1-yl-ethyl)-3-iodo-4-methoxy-N-methyl-benzenesulfonamide]
  Ki: 3.11 nM

## O=S(=O)(NCCN1CCCC1)c1ccc(Br)cc1 [4-Bromo-N-(2-pyrrolidin-1-yl-ethyl)-benzenesulfonamide]
  Ki: 6.65 nM

## CCN(CC)CCNS(=O)(=O)c1ccc(Br)cc1 [4-Bromo-N-(2-diethylamino-ethyl)-benzenesulfonamide]
  Ki: 10.1 nM

## CN(CCN1CCCCCC1)S(=O)(=O)c1ccc(Br)cc1 [N-(2-Azepan-1-yl-ethyl)-4-bromo-N-methyl-benzenesulfonamide]
  Ki: 0.18 nM

## COc1ccc(S(=O)(=O)NCCN2CCCCC2)cc1I [3-Iodo-4-methoxy-N-(2-piperidin-1-yl-ethyl)-benzenesulfonamide]
  Ki: 41.8 nM

## O=S(=O)(NCCN1CCCCC1)c1ccc(I)cc1 [4-Iodo-N-(2-piperidin-1-yl-ethyl)-benzenesulfonamide]
  Ki: 0.46 nM

## CN(CCN1CCCCCC1)S(=O)(=O)c1ccc(I)cc1 [N-(2-Azepan-1-yl-ethyl)-4-iodo-N-methyl-benzenesulfonamide]
  Ki: 0.14 nM

## O=S(=O)(NCCN1CCCCC1)c1ccc(Br)cc1 [4-Bromo-N-(2-piperidin-1-yl-ethyl)-benzenesulfonamide]
  Ki: 1.54 nM
